Reference: US12049615B2, “Systems and methods for electronically and optically monitoring biological samples” (Agilent Technologies, Inc., priority 2020, dated 2024)
Entries after “also recorded” stand apart in the source; their conditions may differ. Where a SMILES comes first, the peptide text is derived from it. The star is where a group is joined. Cbz = O=C(OCc1ccccc1)*

Assays:
A549-Blue cells [1] = experiment: Real-time cell-substrate impedance monitoring of drug-induced apoptosis; assay type: cell-based; settings: for change of impedance signal after drug addition: addition at the 25-hour time point, time- and dose-dependent
Experimental: (§1) Cell maintenance and assays were conducted at 37° C./5% CO2 in F-12K media (ATCC; catalog number 30-2004) containing 10% heat-inactivated FBS (Corning, catalog number 35016CV). While impedance was measured every 15 minutes, images were acquired once per hour. In each well, four fields of view were captured for each channel (brightfield, red, green, and blue). Exposure times were as follows: red (300 ms), green (300 ms), and blue (80 ms). The A549-Blue cell line, which stably expresses nuclear-localized blue fluorescent protein (BFP), was produced by transducing A549 cells (ATCC; catalog number CCL-185) with Agilent eLenti Blue (p/n 8711012) at a multiplicity of infection of 1. From day 2 to day 11 postinfection, 1 μg/mL puromycin was included in the growth medium to select for transductants. For real-time visualization of activated caspase 3, Agilent eCaspase 3 NucView 488 (p/n 8711005) was included in growth medium at a concentration of 5 μm. For real-time visualization of translocated phosphatidylserine, Agilent eAnnexin V Red (p/n 8711007) was included in growth medium at a concentration of 0.25 μg/mL. Agilent E-Plate VIEW microplates (p/n 00300601030) were also used. MG132 (Tocris; catalog number 1748/5) and staurosporine (Calbiochem; catalog number 569396) stocks were dissolved in DMSO.
A549-Blue cells (described above) were seeded into an E-PATE VIEW at a density of 10,000 cells/well. As the cells proliferate over the first day, they occupy an expanding surface area on the biosensor array, causing the impedance signal to rise steadily (FIG. 11A and FIG. 11B). If left untreated, the cells grow to confluence, saturating the biosensor array and giving a plateaued impedance signal. […] The kinetics of these drug-induced responses, and the overall shape of the impedance traces, are distinct for each compound. […] Although MG132 and staurosporine both induce apoptosis, they elicit distinct cellular behaviors en route to cell death, which becomes strikingly clear when real-time impedance is multiplexed with live cell imaging.

A549-Blue cells [2] = experiment: Live cell imaging (blue nuclei, % confluence, caspase 3, annexin V) of drug-treated cells; assay type: cell-based; settings: for total number of blue nuclei: four highest concentrations (MG132 1.9, 5.5, 16.7, 50 μm; staurosporine 0.125-1 μm, over the subsequent 60 hours)
Experimental: as §1
Although A549-Blue cells already cover most of the well bottom by the 26-hour time point, in the absence of drug, they continue proliferating for another 50 hours, packing cells together at higher density (FIG. 12A). Consistent with this, the impedance signal plateaus at roughly 30 hours while the total number of blue nuclei continues to increase until ˜80 hours (FIG. 12A). Blue nuclei count is Obtained by an image processing algorithm to count the number of blue objects in the blue-fluorescent image. Each blue nuclei nucleus corresponds to an A549 cell as it was transduced to expresses nuclear-localized blue fluorescent protein. As such the number of blue nuclei in a well correspond to the number of viable A549-blue cells present in the well. […] Although, over time, these nuclei shrink in size and begin clustering together, they largely remain intact, explaining why the number of blue nuclei stays fairly constant in FIG. 12C. The above coupling of impedance with imaging clearly provides a more complete and nuanced understanding of drug-mediated A549 cell killing than would be possible using either technique alone. Moving beyond simple cell counts, we next probed the kinetics of biochemical phenomena that are specific to the apoptotic killing pathway.
Along with impedance and blue nuclei counts, the induction of apoptosis by MG132 was also tracked by percent cellular confluence, caspase 3 activation (causing cells to fluoresce green), and phosphatidylserine translocation (causing cells to fluoresce red). […] The bold white arrows in the panels for the 20- and 40-hour time points highlight large membrane blebs that contain phosphatidylserine in their outer leaflet.
Next, the continuous response of A549-Blue cells to MG132 was plotted using each of the image-based readouts. Blue nuclei counts (FIG. 14A) (FIG. 14A) display a dependency on drug concentration that closely reflects the impedance responses seen in (FIG. 11A), Despite the extensive apoptotic response, throughout the course of this assay the % cellular confluence never drops below 50% (FIG. 14B), where the cell confluence number is derived from bright field images through image processing algorithms. This is consistent with the fact that, unlike in vivo contexts, where apoptotic cells and their debris are removed through phagocytosis, in vitro, a large percentage of apoptotic cells continue to occupy the well bottom (FIG. 12B). […] Considering the number of cells that were seeded, their rate of growth, and the percentage of cells that display apoptotic markers (FIG. 13), the output numbers in FIGS. 14A-C are consistent with expectations. […]

A549-Blue cells [3] = experiment: EC50 from dose response curves of impedance and image-based readouts (area under the curve); settings: area under the curve from drug addition to 60 hours after; four readouts (normalized cell index, green cell number, red cell number, blue nuclei number); four-parameter logistic fit
Experimental: FIG. 16 provides a table and graphs showing the use of dose response curves to calculate EC50. Using real-time impedance (as represented by normalized cell index) data (FIG. 11A) and live cell imaging (green cell number, red cell number and blue nuclei number) data (FIGS. 14A-C), area under the curve was calculated, and is plotted here as a function of MG132 concentration. Data were fit to a four-parameter logistic equation to determine the EC50.
Using the impedance and image-based readouts presented in Examples II-IV, the EC50 for MG132 was calculated. The area under the curve, spanning from the time of drug addition to 60 hours after drug addition, was plotted as a function of MG132 concentration to yield the dose response curves seen in FIG. 16. The quality of the fitting for the four different readouts is quite good, with R2 values ranging from 0.96 to 0.98. The calculated EC50 values range from 0.86 to 3.0 μm, which is consistent with values reported in the literature. See Han, Y. H. et al. The Effect of MG132, a Proteasome Inhibitor on HeLa Cells in Relation to Cell Growth, Reactive Oxygen Species and GSH. Oncol. Rep. 2009, 22(1), 215-21.

Row | SMILES | change of impedance signal after drug addition (A549-Blue cells [1]) | impedance signal at high concentrations (A549-Blue cells [1]; high concentrations of MG132 (FIG. 11A)) | number of caspase 3-activated cells exceeds number of phosphatidylserine translocated cells by (A549-Blue cells [2]; 50 μM MG132, 40 hours following the first 20 hours of drug treatment) | time at which the number of blue nuclei begins to decrease (A549-Blue cells [2]; after drug addition, 50 μM MG132 (FIG. 15), same time caspase 3 activation and phosphatidylserine translocation become detectable) [h] | number of caspase 3 positive (fluorescence green) objects (A549-Blue cells [2]; dependent on MG132 concentration (FIG. 14C)) | number of annexin V positive (fluorescent red) objects (A549-Blue cells [2]; dependent on MG132 concentration (FIG. 14D)) | total number of blue nuclei (A549-Blue cells [2]) | EC50 (A549-Blue cells [3]) [nM] | impedance response at the four highest concentrations (A549-Blue cells [1]; staurosporine 0.125, 0.250, 0.500, and 1 μm) | cell morphology by live cell imaging (A549-Blue cells [2]; one hour after staurosporine addition)
1 | CC(C)C[C@@H](C=O)NC(=O)[C@H](CC(C)C)NC(=O)[C@H](CC(C)C)NC(=O)OCc1ccccc1 [MG132] (Cbz-Leu-Leu-Leu-aldehyde) | marked decrease | drop to zero; also recorded: dropped to zero | approximately 20% | ~10 | increase over time | increase over time | decreases over time | 860 to 3000 |  | 
2 | CN[C@@H]1C[C@H]2O[C@@](C)([C@@H]1OC)n1c3ccccc3c3c4c(c5c6ccccc6n2c5c31)C(=O)NC4 [staurosporine] | marked decrease |  |  |  |  |  | modest impact |  | plummet within the first few minutes | shrunk so severely that their cytoplasm is barely visible; also recorded: massive cytoplasmic shrinkage
